The test system of series [1] is breast cancer cell lines. The note with it: cited from earlier work.
In series [2] the test system is breast cancer cell lines.
The next series has as its system anal carcinoma. The note with it: in vivo.
The conditions of series [3]: in vivo.
The subject of the next series is advanced breast cancer. Conditions: in vivo.
For series [4] the following is noted: in vivo. This is another data set of the same source.
In series [5] the test system is NQO2-transfected rodent or non-transfected human tumor cell lines.
A further series has as its system VB6 and H357 SCC cells. It counts as cell-based, human.
Series [6] concerns advanced head and neck cancer. The note with it: in vivo.
For series [7], the system named is topoisomerase II expression in NIH3T3 cells.
In a further series the test system is SCLC. Conditions: in vivo.
The next series relates to metastatic breast cancer. Conditions: in vivo.
The test system of the next series is metastatic RCC. Set-up: species or system human. Conditions: in vivo, po.
Series [8] addresses reduced-folate carrier (RFC) (Homo sapiens, UniProt P41440). Conditions: read-out: Km for the RFC.
Another series deals with DNA-topoisomerase I (Homo sapiens, UniProt P11387). It counts as biochemical.
For series [9] the following is noted: in vivo. This is another data set of the same source.
For another series, the system named is cervix cancer. Conditions: in vivo.
Another series relates to carcinoma of cervix. Conditions: in vivo.
Series [10] deals with liver metastases (murine T50/80 breast). Set-up: species or system mice. The note with it: mouse, in vivo.
The conditions of series [11]: mouse, in vivo.
For series [12] the following is noted: in vivo. The source holds these as a separate data set.
The conditions of series [13]: in vivo. The source holds these as a separate data set.

Several values for one entry are separate records, joined by “and”; a condition that tells them apart may be missing. Identical values can stand only once.

Chain of DNA-topoisomerase I (P11387 whole entry): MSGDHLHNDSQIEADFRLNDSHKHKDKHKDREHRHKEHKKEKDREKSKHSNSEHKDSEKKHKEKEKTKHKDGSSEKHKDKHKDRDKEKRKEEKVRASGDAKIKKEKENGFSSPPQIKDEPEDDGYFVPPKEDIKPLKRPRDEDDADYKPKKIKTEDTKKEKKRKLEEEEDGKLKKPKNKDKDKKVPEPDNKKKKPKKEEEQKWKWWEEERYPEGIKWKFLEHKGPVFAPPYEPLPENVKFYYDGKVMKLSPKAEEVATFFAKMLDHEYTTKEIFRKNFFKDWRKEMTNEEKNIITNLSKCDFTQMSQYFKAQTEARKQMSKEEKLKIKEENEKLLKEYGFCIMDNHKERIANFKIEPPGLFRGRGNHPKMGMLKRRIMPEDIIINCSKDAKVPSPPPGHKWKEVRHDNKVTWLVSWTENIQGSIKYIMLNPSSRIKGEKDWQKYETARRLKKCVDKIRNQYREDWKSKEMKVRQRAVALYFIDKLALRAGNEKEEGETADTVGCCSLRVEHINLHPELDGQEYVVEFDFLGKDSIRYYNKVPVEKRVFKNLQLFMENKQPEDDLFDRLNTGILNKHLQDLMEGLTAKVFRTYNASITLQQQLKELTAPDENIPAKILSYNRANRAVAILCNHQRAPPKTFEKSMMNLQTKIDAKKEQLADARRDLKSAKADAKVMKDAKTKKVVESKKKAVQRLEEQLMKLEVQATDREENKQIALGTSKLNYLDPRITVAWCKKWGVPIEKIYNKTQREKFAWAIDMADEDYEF
Chain of reduced-folate carrier (RFC) (P41440 whole entry): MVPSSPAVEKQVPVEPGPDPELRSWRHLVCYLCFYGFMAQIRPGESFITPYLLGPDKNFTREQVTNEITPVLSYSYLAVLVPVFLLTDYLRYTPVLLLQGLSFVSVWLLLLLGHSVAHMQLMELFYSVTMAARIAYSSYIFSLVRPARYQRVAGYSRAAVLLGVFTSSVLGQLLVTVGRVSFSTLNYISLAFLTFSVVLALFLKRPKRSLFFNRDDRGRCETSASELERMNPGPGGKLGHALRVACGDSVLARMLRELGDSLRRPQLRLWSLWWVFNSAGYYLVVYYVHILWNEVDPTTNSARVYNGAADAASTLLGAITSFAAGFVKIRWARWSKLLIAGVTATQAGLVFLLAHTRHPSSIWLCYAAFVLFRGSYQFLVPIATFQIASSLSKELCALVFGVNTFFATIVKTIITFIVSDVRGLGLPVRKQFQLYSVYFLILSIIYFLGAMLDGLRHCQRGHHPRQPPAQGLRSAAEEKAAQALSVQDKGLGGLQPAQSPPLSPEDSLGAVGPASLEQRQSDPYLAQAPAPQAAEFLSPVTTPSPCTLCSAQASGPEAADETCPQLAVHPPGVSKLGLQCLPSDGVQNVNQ

`COc1cc2c(cc1OS(N)(=O)=O)CC[C@@H]1[C@@H]2CC[C@]2(C)C(=O)CC[C@@H]12` [2-MeOEMATE, 2-Methoxyestrone-3-O-Sulfamate]: in the series on tubulin, the “effect on tubulin assembly” value is listed as “inhibited the ability of paclitaxel to promote tubulin assembly”. The “G2/M arrest in breast cancer cells in vitro” value with breast cancer cell lines [1] is recorded as “induced G2/M arrest”. The “fold more potent than parent compounds” value with breast cancer cell lines [2] was above 10 fold.

As for `O=c1[nH]cc(F)c(=O)[nH]1` [5-FU], in the series with anal carcinoma, the PD is recorded as 4%, the PR was found to be 22%, the “acute skin toxicity grade 3” value came to 96% and the “clinical CR” value turned out to be 74%. For the same compound, the Kelim in series [3] is recorded as 3.7 0.8 hr-1.

As for `CC(C)(C#N)c1cc(Cn2cncn2)cc(C(C)(C)C#N)c1` [AN], in the series with advanced breast cancer, the “OR (CR+PR)” value is recorded as 29%; the “median TTP” value is 8.5 months and 10.7 months; the thromboembolic events is recorded as 4.5%; the vaginal bleeding was 1.2%.

In the case of `NC(=O)c1cc(N2CC2)c([N+](=O)[O-])cc1[N+](=O)[O-]` [CB1954, 5-(aziridin-l-yl)-2,4-dinitrobenzamide], in series [4], the “drug unchanged in the urine” value was below 5%, the median elimination half-life worked out at 51 min, the “time serum levels greater than 0.1 µM” value is recorded as “more than 4 hours” and the “time serum levels greater than 1 M” value is 2 h. Moreover, in series [4] (iv), the “maximum tolerated dose (MTD)” value is listed as 37.5 mg/m2. Also, the “increase in CB 1954 cytotoxicity in the presence of NRH” value in series [5] is given as 100-3000 fold.

On to `COc1c(C[C@@H](C)OC(=O)Oc2ccc(O)cc2)c2c3c(C[C@@H](C)OC(=O)c4ccccc4)c(OC)c(=O)c4c(O)cc(OC)c(c5c(OC)cc(O)c(c1=O)c52)c43` [Calphostin C], for which, in the series with VB6 and H357 SCC cells, the “VB6 cell migration reduced to” value is 7.8%.

For `C[C@]12CC[C@@H]3c4ccc(O)cc4CC[C@H]3[C@@H]1CC[C@@H]2O` [E2, Oestradiol], in the series on MCF-7, the “induction of integrin 1 expression” value was 1.7 fold and the “reduction of integrin 1 expression” value stood at 29%.

For `Oc1cccc(-c2c3nc(c(-c4cccc(O)c4)c4ccc([nH]4)c(-c4cccc(O)c4)c4nc(c(-c5cccc(O)c5)c5ccc2[nH]5)CC4)C=C3)c1` [Foscan], in [6], the neurotoxicity result is “No specific neurotoxicity” and the tumour effect entry was “consistent tumour necrosis”.

Consider `CCOc1ccc(-c2nc3ccc(-c4nc5ccc(N6CCN(C)CC6)cc5[nH]4)cc3[nH]2)cc1` [Hoechst 33342], for which the “expression of top2 at confluence” value in series [7] is listed as “increased expression”.

Take `COc1cc2c(c(OC)c1OC)-c1ccc(O)cc1[C@@H](NC(C)=O)CC2` [N-acetylcolchinol]: the “concentrations at which toxicity/antiproliferative effects occur” value in the series on HUVECs is above 100 M.

Consider `C[C@@H](O)[C@@H]1NC(=O)[C@H](CCCCN)NC(=O)[C@@H](Cc2c[nH]c3ccccc23)NC(=O)[C@H](Cc2ccccc2)NC(=O)[C@@H](NC(=O)[C@H](N)Cc2ccccc2)CSSC[C@@H](C(=O)N[C@H](CO)[C@@H](C)O)NC1=O` [Octreotide], for which the neutropenic pyrexia in the series on SCLC is given as 9 % of treatment cycles.

In the case of `CC/C(=C(\c1ccccc1)c1ccc(OCCN(C)C)cc1)c1ccccc1` [TAM], in the series on advanced breast cancer, the “OR (CR+PR)” value is reported as 27%; the “median TTP” value is 7.0 months and 6.4 months; the thromboembolic events was found to be 7.6%; the vaginal bleeding came to 2.9%.

As to `CC(=O)O[C@@]12CO[C@@H]1C[C@H](O)[C@@]1(C)C(=O)[C@H](O)C3=C(C)[C@@H](OC(=O)[C@H](O)[C@@H](NC(=O)OC(C)(C)C)c4ccccc4)C[C@@](O)([C@@H](OC(=O)c4ccccc4)[C@H]21)C3(C)C` [TAX], in the series on metastatic breast cancer, the median survival is listed as 204 days, the “patients requiring admission due to neutropenic sepsis” value is listed as 40% and the patients showing response is reported as 53%.

Compound `O=C1CCC(N2C(=O)c3ccccc3C2=O)C(=O)N1` (stereo not shown) [Thalidomide] registered a response rate in the series with metastatic RCC of 10%.

`C#CCN(Cc1cc2c(=O)[nH]c(C)nc2cc1C)c1ccc(C(=O)N[C@@H](CCc2nnn[nH]2)C(=O)O)c(F)c1` [ZD9331]: the Km in series [8] is 1000 to 2000 nM.

Regarding `CC[C@@]1(O)C(=O)OCc2c1cc1n(c2=O)Cc2cc3ccccc3nc2-1` [camptothecin], the “nicked DNA / cleavage” value at DNA-topoisomerase I was 90%.

For the compound `N.N.[Cl][Pt][Cl]` [cisplatin], in series [9], the hypomagnesaemia is 14 % of all chemotherapy cycles. For the same compound, in the series with cervix cancer, the “grade 3 or severe (grade 4) neutropaenia” value was 27%, the “some degree of neutropaenia” value is 70 % of patients and the thrombocytopaenia stood at 12%. The compound also yielded a general malaise in the series on carcinoma of cervix of 56%.

Consider `COc1ccc(/C=C\c2cc(OC)c(OC)c(OC)c2)cc1O` [combretastatin A4], for which the “average decrease in tumour volume” value in [10] came out at 30%.

On to `COc1cc(/C=C/C(=O)CC(=O)/C=C/c2ccc(O)c(OC)c2)ccc1O` [curcumin, diferuloylmethane], for which, in the series with hepatocytes, the metabolism result was “metabolised to THC, HHC and HHCO”.

`Cn1cnc2c(NCc3ccccc3)nc(NCCO)nc21` [olomoucine]: the “correlation of PK parameters, combination vs alone (spearman r)” value in series [11] was determined as 0.90.

Regarding `CC[C@H](CO)Nc1nc(NCc2ccccc2)c2ncn(C(C)C)c2n1` [roscovitine], in the series on colorectal cell lines, the “cross-resistance of HCT116/8FP cells” value was “no cross-resistance”. Further, in series [11], the “correlation of PK parameters, combination vs alone (spearman r)” value is on record as 0.99; the “ranking of AUC and clearance” value was “highest AUC and the lowest clearance”.

As to `O=P(O)(O)C(O)(Cn1ccnc1)P(=O)(O)O` [zoledronate], the “proportion of apoptotic cells” value with MCF7 cells is reported as “significant increase”.

On to carboplatin, for which the “AUC achieved, mean standard deviation” value in series [12] is reported as 11420 % of target. Further, in [13], the “Grade 1 reaction” value was 45 % of patients, the “HSR on rechallenge with a platinum compound” value is on record as 66%, the “grade II reaction” value is 25 % of patients and the “grade III reaction” value is recorded as 30 % of patients. Besides, in series [13], the “incidence of HSR” value is given as 10.5%; the “mean duration of HSR” value was found to be 44 min; the “mean time interval between initial exposure and HSR” value amounted to 26.5 months; the “mean time of onset of symptoms” value was found to be 14.5 min. Besides, the “overall incidence of HSR” value in [13] was 4.5%.

Values taken from article PMC2363545 (British Journal of Cancer, 2000).
